Assay results from paper PMC10058245 (Science Advances, 2023).
Substitutions are numbered along the chain they refer to.

Columns and labels:
[1] = molecular target: T1, VRAC (SWELL1/LRRC8A-containing volume-regulated anion channel) (Homo sapiens, UniProt Q8IWT6); assay: whole-cell patch clamp of hypotonicity-induced VRAC currents; assay type: cell-based
T1 sequence (Q8IWT6 1-810): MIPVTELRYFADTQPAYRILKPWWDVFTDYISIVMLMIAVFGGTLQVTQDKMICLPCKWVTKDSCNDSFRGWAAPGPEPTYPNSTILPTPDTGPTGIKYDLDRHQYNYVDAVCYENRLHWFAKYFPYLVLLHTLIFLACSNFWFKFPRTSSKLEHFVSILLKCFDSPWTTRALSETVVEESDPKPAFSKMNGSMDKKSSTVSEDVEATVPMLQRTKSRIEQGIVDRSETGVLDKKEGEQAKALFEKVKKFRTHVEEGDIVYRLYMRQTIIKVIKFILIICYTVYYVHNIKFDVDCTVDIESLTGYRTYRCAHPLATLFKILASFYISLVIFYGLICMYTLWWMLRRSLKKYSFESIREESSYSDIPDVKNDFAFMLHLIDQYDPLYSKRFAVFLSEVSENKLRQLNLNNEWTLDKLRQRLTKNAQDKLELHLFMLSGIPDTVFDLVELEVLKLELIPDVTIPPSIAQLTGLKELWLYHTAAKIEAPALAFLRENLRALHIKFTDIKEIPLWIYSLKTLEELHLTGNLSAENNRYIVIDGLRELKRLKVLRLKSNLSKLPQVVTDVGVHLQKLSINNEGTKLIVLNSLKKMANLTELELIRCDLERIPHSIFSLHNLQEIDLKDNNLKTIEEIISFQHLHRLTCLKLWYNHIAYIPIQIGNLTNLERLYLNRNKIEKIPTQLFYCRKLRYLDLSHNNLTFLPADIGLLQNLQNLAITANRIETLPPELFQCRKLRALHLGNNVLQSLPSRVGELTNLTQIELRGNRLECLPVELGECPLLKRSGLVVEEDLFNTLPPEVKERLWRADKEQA

[2] = molecular target: T2, VRAC (Swell1/Lrrc8a-containing volume-regulated anion channel) (Mus musculus, UniProt Q80WG5); assay: whole-cell patch clamp of hypotonicity-induced VRAC currents in BV2 microglia; assay type: cell-based
T2 sequence (Q80WG5 1-810): T1 sequence (Q8IWT6 1-810) with P75S, G76S, I86V, I276A, A591V, I715V, T722A, N792S

IC50 [1] | IC50 [2] | SMILES
3.8 µM | 4.1 µM | O=c1oc2ccccc2c(O)c1Cc1c(O)c2ccccc2oc1=O [dicumarol]
4.9 µM | – | COc1cc(C(=O)NS(=O)(=O)c2ccccc2C)ccc1Cc1cn(C)c2ccc(NC(=O)OC3CCCC3)cc12 [zafirlukast]
